Source: US9340590B2 (priority 2011, dated 2016)
Read-outs that look alike come from different tables or passages of the source. Positions of bridges follow the written chain, without caps; N, C: chain ends. Non-standard residues stand in square brackets, D forms with d. Residues, ends and D or L forms follow the SMILES beside them. Lys(Me2) = CN(C)CCCC[C@H](N)C(=O)O

Tests used:
hNav1.5 = hNav1.5 (Homo sapiens, UniProt Q14524); assay: cell-based
hNav1.3 = hNav1.3 (Homo sapiens, UniProt Q9NY46); assay: cell-based; settings: IonWorks Quattro, read-out: IWQ Use Nav1.3
hNav1.3, sequence (Q9NY46 whole entry, looked up): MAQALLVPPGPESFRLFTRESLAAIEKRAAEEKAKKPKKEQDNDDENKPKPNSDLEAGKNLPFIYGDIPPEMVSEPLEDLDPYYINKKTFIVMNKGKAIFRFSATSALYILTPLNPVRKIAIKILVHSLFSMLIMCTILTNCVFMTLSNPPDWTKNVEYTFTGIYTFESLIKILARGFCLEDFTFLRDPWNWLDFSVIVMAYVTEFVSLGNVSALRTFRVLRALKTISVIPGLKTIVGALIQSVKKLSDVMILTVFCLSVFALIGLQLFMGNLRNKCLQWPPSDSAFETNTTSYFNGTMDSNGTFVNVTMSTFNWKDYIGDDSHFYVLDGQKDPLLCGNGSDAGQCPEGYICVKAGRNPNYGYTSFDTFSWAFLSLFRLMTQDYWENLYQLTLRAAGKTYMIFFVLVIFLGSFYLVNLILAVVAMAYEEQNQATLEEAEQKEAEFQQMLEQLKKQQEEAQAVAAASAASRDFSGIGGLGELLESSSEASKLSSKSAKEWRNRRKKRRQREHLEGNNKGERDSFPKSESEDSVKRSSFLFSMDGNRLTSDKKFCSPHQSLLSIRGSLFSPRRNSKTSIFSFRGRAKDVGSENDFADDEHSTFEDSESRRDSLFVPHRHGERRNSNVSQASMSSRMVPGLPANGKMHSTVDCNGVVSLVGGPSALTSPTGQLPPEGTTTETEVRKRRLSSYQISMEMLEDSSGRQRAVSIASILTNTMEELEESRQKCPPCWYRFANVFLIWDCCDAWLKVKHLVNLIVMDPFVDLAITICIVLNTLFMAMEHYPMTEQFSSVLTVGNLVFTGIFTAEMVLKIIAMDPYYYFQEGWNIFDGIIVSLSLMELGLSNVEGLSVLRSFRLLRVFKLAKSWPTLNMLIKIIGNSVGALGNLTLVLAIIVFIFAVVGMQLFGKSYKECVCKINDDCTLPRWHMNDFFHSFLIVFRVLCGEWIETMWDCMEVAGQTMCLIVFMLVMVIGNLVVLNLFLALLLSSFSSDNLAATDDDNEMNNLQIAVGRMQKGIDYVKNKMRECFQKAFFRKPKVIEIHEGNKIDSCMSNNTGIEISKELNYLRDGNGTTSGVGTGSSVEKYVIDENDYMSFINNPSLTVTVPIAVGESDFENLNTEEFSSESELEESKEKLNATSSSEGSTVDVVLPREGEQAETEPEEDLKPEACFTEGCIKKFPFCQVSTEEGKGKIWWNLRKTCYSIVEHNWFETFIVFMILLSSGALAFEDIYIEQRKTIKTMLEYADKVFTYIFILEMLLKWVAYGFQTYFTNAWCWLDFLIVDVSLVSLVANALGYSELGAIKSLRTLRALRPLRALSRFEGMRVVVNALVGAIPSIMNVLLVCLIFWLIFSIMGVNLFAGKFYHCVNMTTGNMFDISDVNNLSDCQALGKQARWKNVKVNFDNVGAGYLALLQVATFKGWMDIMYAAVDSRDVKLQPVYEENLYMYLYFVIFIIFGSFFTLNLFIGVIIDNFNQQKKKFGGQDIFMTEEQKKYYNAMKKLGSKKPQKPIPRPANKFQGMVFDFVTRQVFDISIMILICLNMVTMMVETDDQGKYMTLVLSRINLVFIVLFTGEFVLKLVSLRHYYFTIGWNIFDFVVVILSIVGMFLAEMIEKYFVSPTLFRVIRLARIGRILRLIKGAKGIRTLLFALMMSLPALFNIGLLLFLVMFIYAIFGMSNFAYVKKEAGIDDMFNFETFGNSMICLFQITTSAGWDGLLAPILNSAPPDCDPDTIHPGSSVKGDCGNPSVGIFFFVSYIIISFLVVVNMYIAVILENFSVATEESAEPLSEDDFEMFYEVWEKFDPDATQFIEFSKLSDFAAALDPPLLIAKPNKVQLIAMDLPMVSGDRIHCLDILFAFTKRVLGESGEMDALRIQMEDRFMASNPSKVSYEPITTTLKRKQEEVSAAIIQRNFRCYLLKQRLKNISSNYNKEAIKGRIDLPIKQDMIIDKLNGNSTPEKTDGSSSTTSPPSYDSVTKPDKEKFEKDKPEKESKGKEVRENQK

[1] = IonWorks Quattro, Use, read-out: IWQ Use Nav1.5

hNav1.5, sequence (Q14524 whole entry, looked up): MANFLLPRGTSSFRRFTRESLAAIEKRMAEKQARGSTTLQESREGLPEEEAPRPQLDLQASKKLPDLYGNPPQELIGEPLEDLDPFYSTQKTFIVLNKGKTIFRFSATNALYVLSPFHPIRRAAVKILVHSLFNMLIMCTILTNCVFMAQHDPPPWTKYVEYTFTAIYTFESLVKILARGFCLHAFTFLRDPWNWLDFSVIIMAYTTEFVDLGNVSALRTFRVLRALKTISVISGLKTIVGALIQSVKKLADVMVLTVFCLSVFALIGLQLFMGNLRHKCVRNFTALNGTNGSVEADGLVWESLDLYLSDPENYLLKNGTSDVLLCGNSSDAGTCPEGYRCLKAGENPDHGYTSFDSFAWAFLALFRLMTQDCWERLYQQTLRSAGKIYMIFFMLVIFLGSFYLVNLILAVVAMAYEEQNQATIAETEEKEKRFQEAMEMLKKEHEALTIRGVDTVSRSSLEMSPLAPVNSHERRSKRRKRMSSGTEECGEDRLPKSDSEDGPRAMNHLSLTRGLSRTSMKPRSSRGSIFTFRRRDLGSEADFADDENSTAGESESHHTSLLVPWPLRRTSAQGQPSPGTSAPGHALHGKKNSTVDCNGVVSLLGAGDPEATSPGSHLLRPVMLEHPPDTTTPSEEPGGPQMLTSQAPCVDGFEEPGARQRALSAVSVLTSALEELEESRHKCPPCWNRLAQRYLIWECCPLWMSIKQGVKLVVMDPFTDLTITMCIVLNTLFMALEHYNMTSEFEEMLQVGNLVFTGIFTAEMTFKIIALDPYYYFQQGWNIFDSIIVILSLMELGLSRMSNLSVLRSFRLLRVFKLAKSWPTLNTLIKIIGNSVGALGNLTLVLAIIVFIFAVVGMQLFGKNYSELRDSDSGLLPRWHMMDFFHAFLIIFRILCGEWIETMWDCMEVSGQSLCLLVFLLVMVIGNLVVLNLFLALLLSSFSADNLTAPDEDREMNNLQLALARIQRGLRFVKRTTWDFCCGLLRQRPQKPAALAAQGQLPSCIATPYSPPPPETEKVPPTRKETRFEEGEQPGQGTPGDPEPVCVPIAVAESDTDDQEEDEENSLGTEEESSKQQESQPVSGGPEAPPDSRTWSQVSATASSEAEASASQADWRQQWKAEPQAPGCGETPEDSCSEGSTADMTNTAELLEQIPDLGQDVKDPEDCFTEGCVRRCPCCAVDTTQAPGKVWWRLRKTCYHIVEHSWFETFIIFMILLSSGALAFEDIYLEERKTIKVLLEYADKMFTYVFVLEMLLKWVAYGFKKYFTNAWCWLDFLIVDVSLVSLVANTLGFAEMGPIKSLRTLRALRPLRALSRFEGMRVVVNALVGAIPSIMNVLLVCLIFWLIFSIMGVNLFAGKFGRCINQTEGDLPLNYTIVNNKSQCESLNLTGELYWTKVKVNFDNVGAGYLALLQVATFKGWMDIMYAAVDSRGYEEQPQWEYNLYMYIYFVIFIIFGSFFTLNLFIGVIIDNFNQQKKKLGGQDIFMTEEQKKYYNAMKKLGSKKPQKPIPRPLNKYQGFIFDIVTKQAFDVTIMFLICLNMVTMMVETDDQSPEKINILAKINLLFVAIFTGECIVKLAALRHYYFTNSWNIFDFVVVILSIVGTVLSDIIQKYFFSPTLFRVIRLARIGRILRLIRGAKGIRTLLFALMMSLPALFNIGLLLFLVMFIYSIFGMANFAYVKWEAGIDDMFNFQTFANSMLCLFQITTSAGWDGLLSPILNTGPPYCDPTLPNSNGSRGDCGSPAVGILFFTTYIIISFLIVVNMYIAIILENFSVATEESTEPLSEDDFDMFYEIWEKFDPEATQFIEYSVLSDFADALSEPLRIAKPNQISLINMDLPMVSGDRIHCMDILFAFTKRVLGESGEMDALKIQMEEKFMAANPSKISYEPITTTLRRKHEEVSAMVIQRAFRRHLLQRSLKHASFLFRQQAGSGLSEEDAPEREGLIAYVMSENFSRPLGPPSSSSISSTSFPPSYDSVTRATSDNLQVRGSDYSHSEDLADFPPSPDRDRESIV

| SMILES | IC50 (hNav1.5; [1]) | IC50 (hNav1.3; Use) | also measured |
| --- | --- | --- | --- |
| CC[C@H](C)[C@@H]1NC(=O)[C@@H]2CSSC[C@@H]3NC(=O)[C@H](C(C)C)NC(=O)[C@H](CC(C)C)NC(=O)[C@H](CC(N)=O)NC(=O)[C@@H]4CCCN4C(=O)[C@H](CCCNC(=N)N)NC(=O)[C@H](CSSC[C@H](NC(=O)[C@@H](N)CC(=O)O)C(=O)N[C@@H](CC(C)C)C(=O)NCC(=O)N[C@@H](Cc4ccccc4)C(=O)N[C@@H](CCSC)C(=O)N[C@@H](C)C(=O)N[C@@H](CCCCN)C(=O)N2)NC(=O)[C@H](CSSC[C@@H](C(=O)N[C@@H](CCCCN)C(=O)N[C@@H](Cc2ccc(O)cc2)C(=O)N[C@H](C(=O)N[C@@H](Cc2ccccc2)C(N)=O)C(C)C)NC(=O)[C@H](Cc2c[nH]c4ccccc24)NC(=O)[C@H](CCCCN)NC(=O)[C@H](Cc2cnc[nH]2)NC(=O)[C@H]([C@@H](C)O)NC(=O)[C@H](CCCNC(=N)N)NC(=O)[C@H](CO)NC3=O)NC(=O)[C@H](CCCCN)NC(=O)[C@H](CC(=O)O)NC(=O)[C@H](CC(N)=O)NC(=O)[C@H](CC(=O)O)NC(=O)[C@@H]2CCCN2C1=O [[Ala7]GpTx-1(1-34)] (H-DCLGFMAKCIPDNDKCCRPNLVCSRTHKWCKYVF-NH2; disulfide 2-17, 9-23, 16-30) | – | – | IC50 (hNav1.5; IonWorks Quattro, use-dependent block, hNav1.5, read-out: IWQ Use Nav1.5): 21.5 µM; IC50 (hNav1.3; use-dependent block, hNav1.3): 830 nM |
| CSCC[C@@H]1NC(=O)[C@H](Cc2ccccc2)NC(=O)CNC(=O)[C@H](CC(C)C)NC(=O)[C@@H](NC(=O)[C@@H](N)CC(=O)O)CSSC[C@@H]2NC(=O)[C@@H]3CSSC[C@@H](C(=O)N[C@@H](CCCCN)C(=O)N[C@@H](Cc4ccc(O)cc4)C(=O)N[C@H](C(=O)N[C@@H](Cc4ccccc4)C(N)=O)C(C)C)NC(=O)[C@H](Cc4c[nH]c5ccccc45)NC(=O)[C@H](CCCCN)NC(=O)[C@H](Cc4cnc[nH]4)NC(=O)[C@H]([C@@H](C)O)NC(=O)[C@H](CCCNC(=N)N)NC(=O)[C@H](CO)NC(=O)[C@H](CSSC[C@H](NC(=O)[C@H](CCCCN)NC(=O)[C@H](CCCNC(=N)N)NC1=O)C(=O)N[C@@H](CCC(=O)O)C(=O)N1CCC[C@H]1C(=O)N[C@@H](CC(=O)O)C(=O)N[C@@H](CC(N)=O)C(=O)N[C@@H](CC(=O)O)C(=O)N[C@@H](CCCCN)C(=O)N3)NC(=O)[C@H](C(C)C)NC(=O)[C@H](CC(C)C)NC(=O)[C@H](CC(N)=O)NC(=O)[C@@H]1CCCN1C(=O)[C@H](CCCNC(=N)N)NC2=O [SEQ ID NO: 146, [Glu10]GpTx-1] (H-DCLGFMRKCEPDNDKCCRPNLVCSRTHKWCKYVF-NH2; disulfide 2-17, 9-23, 16-30) | 9.55 µM | 150 nM | – |
| CC[C@H](C)[C@@H]1NC(=O)[C@@H]2CSSC[C@@H]3NC(=O)[C@H](C(C)C)NC(=O)[C@H](CC(C)C)NC(=O)[C@H](CC(N)=O)NC(=O)[C@@H]4CCCN4C(=O)[C@H](CCCNC(=N)N)NC(=O)[C@H](CSSC[C@H](NC(=O)[C@@H](N)CC(=O)O)C(=O)N[C@@H](CC(C)C)C(=O)NCC(=O)N[C@@H](Cc4ccccc4)C(=O)N[C@@H](CCSC)C(=O)N[C@@H](CCCNC(=N)N)C(=O)N[C@@H](CCCCN)C(=O)N2)NC(=O)[C@H](CSSC[C@@H](C(=O)N[C@@H](CCCCN)C(=O)N[C@@H](Cc2ccc(O)cc2)C(=O)N[C@@H](CCC(=O)O)C(=O)N[C@@H](Cc2ccccc2)C(N)=O)NC(=O)[C@H](Cc2c[nH]c4ccccc24)NC(=O)[C@H](CCCCN)NC(=O)[C@H](Cc2cnc[nH]2)NC(=O)[C@H]([C@@H](C)O)NC(=O)[C@H](CCCNC(=N)N)NC(=O)[C@H](CO)NC3=O)NC(=O)[C@H](CCCCN)NC(=O)[C@H](CC(=O)O)NC(=O)[C@H](CC(N)=O)NC(=O)[C@H](CC(=O)O)NC(=O)[C@@H]2CCCN2C1=O [SEQ ID NO: 33, [Glu33]GpTx-1] (H-DCLGFMRKCIPDNDKCCRPNLVCSRTHKWCKYEF-NH2; disulfide 2-17, 9-23, 16-30) | – | – | IC50 (hNav1.5; Table 26, IonWorks Quattro, use, […], read-out: IWQ Use Nav1.5): 11.5 µM; IC50 (hNav1.3; Table 26, use, […]): 390 nM |
| CC[C@H](C)[C@@H]1NC(=O)[C@@H]2CSSC[C@@H]3NC(=O)[C@H](C(C)C)NC(=O)[C@H](CC(C)C)NC(=O)[C@H](CC(N)=O)NC(=O)[C@@H]4CCCN4C(=O)[C@H](CCCCN(C)C)NC(=O)[C@H](CSSC[C@H](NC(=O)[C@@H](N)CC(=O)O)C(=O)N[C@@H](CC(C)C)C(=O)NCC(=O)N[C@@H](Cc4ccccc4)C(=O)N[C@@H](CCSC)C(=O)N[C@@H](CCCNC(=N)N)C(=O)N[C@@H](CCCCN)C(=O)N2)NC(=O)[C@H](CSSC[C@@H](C(=O)N[C@@H](CCCCN)C(=O)N[C@@H](Cc2ccc(O)cc2)C(=O)N[C@H](C(=O)N[C@@H](Cc2ccccc2)C(N)=O)C(C)C)NC(=O)[C@H](Cc2c[nH]c4ccccc24)NC(=O)[C@H](CCCCN)NC(=O)[C@H](Cc2cnc[nH]2)NC(=O)[C@H]([C@@H](C)O)NC(=O)[C@H](CCCNC(=N)N)NC(=O)[C@H](CO)NC3=O)NC(=O)[C@H](CCCCN)NC(=O)[C@H](CC(=O)O)NC(=O)[C@H](CC(N)=O)NC(=O)[C@H](CC(=O)O)NC(=O)[C@@H]2CCCN2C1=O [compound 314] (H-DCLGFMRKCIPDNDKCC[Lys(Me2)]PNLVCSRTHKWCKYVF-NH2; disulfide 2-17, 9-23, 16-30) | 6.55 µM | 80 nM | – |
| CC[C@H](C)[C@@H]1NC(=O)[C@@H]2CSSC[C@@H]3NC(=O)[C@H](C(C)C)NC(=O)[C@H](CC(C)C)NC(=O)[C@H](CC(N)=O)NC(=O)[C@@H]4CCCN4C(=O)[C@H](CCCNC(=N)N)NC(=O)[C@H](CSSC[C@H](NC(=O)[C@@H](N)CCCNC(=N)N)C(=O)N[C@@H](CC(C)C)C(=O)NCC(=O)N[C@@H](Cc4ccccc4)C(=O)N[C@@H](CCSC)C(=O)N[C@@H](CCCNC(=N)N)C(=O)N[C@@H](CCCCN)C(=O)N2)NC(=O)[C@H](CSSC[C@@H](C(=O)N[C@@H](CCCCN)C(=O)N[C@@H](Cc2ccc(O)cc2)C(=O)N[C@H](C(=O)N[C@@H](Cc2ccccc2)C(N)=O)C(C)C)NC(=O)[C@H](Cc2c[nH]c4ccccc24)NC(=O)[C@H](CCCCN)NC(=O)[C@H](Cc2cnc[nH]2)NC(=O)[C@H]([C@@H](C)O)NC(=O)[C@H](CCCNC(=N)N)NC(=O)[C@H](CO)NC3=O)NC(=O)[C@H](CCCCN)NC(=O)[C@H](CC(=O)O)NC(=O)[C@H](CC(N)=O)NC(=O)[C@H](CC(=O)O)NC(=O)[C@@H]2CCCN2C1=O [SEQ ID NO: 62] (H-RCLGFMRKCIPDNDKCCRPNLVCSRTHKWCKYVF-NH2; disulfide 2-17, 9-23, 16-30) | – | – | IC50 (hNav1.5; IonWorks Quattro, clamped to −110 mV, depolarized to −10 mV, 5 min after compound, n=2, read-out: IWQ Use Nav1.5): 8.78 µM; IC50 (hNav1.3; clamped to −110 mV, depolarized to −10 mV, 5 min after compound, n=2): 100 nM |
| CSCC[C@@H]1NC(=O)[C@H](Cc2ccccc2)NC(=O)CNC(=O)[C@H](CC(C)C)NC(=O)[C@@H](NC(=O)[C@@H](N)CC(=O)O)CSSC[C@@H]2NC(=O)[C@@H]3CSSC[C@@H](C(=O)N[C@@H](CCCCN)C(=O)N[C@@H](Cc4ccc(O)cc4)C(=O)N[C@H](C(=O)N[C@@H](Cc4ccccc4)C(N)=O)C(C)C)NC(=O)[C@H](Cc4c[nH]c5ccccc45)NC(=O)[C@H](CCCCN)NC(=O)[C@H](Cc4cnc[nH]4)NC(=O)[C@H]([C@@H](C)O)NC(=O)[C@H](CCCNC(=N)N)NC(=O)[C@H](CO)NC(=O)[C@H](CSSC[C@H](NC(=O)[C@H](CCCCN)NC(=O)[C@H](CCCNC(=N)N)NC1=O)C(=O)N[C@@H](Cc1cnc[nH]1)C(=O)N1CCC[C@H]1C(=O)N[C@@H](CC(=O)O)C(=O)N[C@@H](CC(N)=O)C(=O)N[C@@H](CC(=O)O)C(=O)N[C@@H](CCCCN)C(=O)N3)NC(=O)[C@H](C(C)C)NC(=O)[C@H](CC(C)C)NC(=O)[C@H](CC(N)=O)NC(=O)[C@@H]1CCCN1C(=O)[C@H](CCCNC(=N)N)NC2=O [compound 304] (H-DCLGFMRKCHPDNDKCCRPNLVCSRTHKWCKYVF-NH2; disulfide 2-17, 9-23, 16-30) | 6.36 µM | 30 nM | – |
| CC[C@H](C)[C@@H]1NC(=O)[C@@H]2CSSC[C@@H]3NC(=O)[C@H](C(C)C)NC(=O)[C@H](CC(C)C)NC(=O)[C@H](CC(N)=O)NC(=O)[C@@H]4CCCN4C(=O)[C@H](CCCNC(=N)N)NC(=O)[C@H](CSSC[C@H](NC(=O)[C@@H](N)CC(=O)O)C(=O)N[C@@H](CC(C)C)C(=O)NCC(=O)N[C@@H](Cc4ccccc4)C(=O)N[C@@H](CCSC)C(=O)N[C@@H](CCCNC(=N)N)C(=O)N[C@@H](CCCCN)C(=O)N2)NC(=O)[C@H](CSSC[C@@H](C(=O)N[C@@H](CCCCN)C(=O)N[C@@H](Cc2ccc(O)cc2)C(=O)N[C@H](C(=O)N[C@@H](Cc2ccccc2)C(N)=O)C(C)C)NC(=O)[C@H](Cc2c[nH]c4ccccc24)NC(=O)[C@H](CCCCN)NC(=O)[C@H](Cc2cnc[nH]2)NC(=O)[C@H]([C@@H](C)O)NC(=O)[C@H](CCCNC(=N)N)NC(=O)[C@H](CO)NC3=O)NC(=O)[C@H](CCCCN)NC(=O)[C@H](CC(=O)O)NC(=O)[C@H](CC(N)=O)NC(=O)[C@H](C)NC(=O)[C@@H]2CCCN2C1=O [compound 4] (H-DCLGFMRKCIPANDKCCRPNLVCSRTHKWCKYVF-NH2; disulfide 2-17, 9-23, 16-30) | – | 130 nM | IC50 (hNav1.5; IWQ Use Nav1.5 (μM)): 8.05 µM |
